Tests used:
[1] = Toxicity in Mus musculus ddY (mouse) assessed as mortality at 400 mg/kg, ip after 1 day; assay type: organism-based; parameters: dose 400 mg/kg, route intraperitoneal; details: in vivo
[2] = Toxicity in Mus musculus ddY (mouse) assessed as mortality at 325 mg/kg, ip after 6 days; assay type: organism-based; parameters: dose 325 mg/kg, route intraperitoneal; details: in vivo
[3] = test system: Brassica rapa subsp. oleifera; assay: Growth inhibition of Brassica rapa subsp. oleifera assessed as root growth at 1 x 10^-4 M after 7 days; assay type: functional
[4] = Toxicity in Mus musculus ddY (mouse) assessed as mortality at 350 mg/kg, ip after 3 days; assay type: organism-based; parameters: dose 350 mg/kg, route intraperitoneal; details: in vivo
[5] = Toxicity in Mus musculus ddY (mouse) assessed as mortality at 300 mg/kg, ip after 5 days; assay type: organism-based; parameters: dose 300 mg/kg, route intraperitoneal; details: in vivo
[6] = Toxicity in Mus musculus ddY (mouse) assessed as mortality at 275 mg/kg, ip after 6 days; assay type: organism-based; parameters: dose 275 mg/kg, route intraperitoneal; details: in vivo
[7] = test system: Brassica rapa subsp. oleifera; assay: Growth inhibition of Brassica rapa subsp. oleifera assessed as root growth at 5 x 10^-5 M after 7 days; assay type: functional
[8] = Toxicity in Mus musculus ddY (mouse) assessed as mortality at 375 mg/kg, ip after 4 days; assay type: organism-based; parameters: dose 375 mg/kg, route intraperitoneal; details: in vivo
[9] = Toxicity in Mus musculus ddY (mouse) assessed as mortality at 375 mg/kg, ip after 3 days; assay type: organism-based; parameters: dose 375 mg/kg, route intraperitoneal; details: in vivo
[10] = Toxicity in Mus musculus ddY (mouse) assessed as mortality at 350 mg/kg, ip after 4 days; assay type: organism-based; parameters: dose 350 mg/kg, route intraperitoneal; details: in vivo
[11] = Toxicity in Mus musculus ddY (mouse) assessed as mortality at 300 mg/kg, ip after 2 days; assay type: organism-based; parameters: dose 300 mg/kg, route intraperitoneal; details: in vivo
[12] = Toxicity in Mus musculus ddY (mouse) assessed as mortality at 300 mg/kg, ip after 3 days; assay type: organism-based; parameters: dose 300 mg/kg, route intraperitoneal; details: in vivo
[13] = Toxicity in Mus musculus ddY (mouse) assessed as mortality at 400 mg/kg, ip after 6 days; assay type: organism-based; parameters: dose 400 mg/kg, route intraperitoneal; details: in vivo
[14] = test system: Brassica rapa subsp. oleifera; assay: Growth inhibition of Brassica rapa subsp. oleifera assessed as chlorophyll a level at 3 x 10^-5 M after 7 days; assay type: functional; parameters: scale not given: the % may be the effect or the level left
[15] = Toxicity in Mus musculus ddY (mouse) assessed as mortality at 400 mg/kg, ip after 3 days; assay type: organism-based; parameters: dose 400 mg/kg, route intraperitoneal; details: in vivo
[16] = test system: Brassica rapa subsp. oleifera; assay: Growth inhibition of Brassica rapa subsp. oleifera assessed as chlorophyll a level at 1 x 10^-4 M after 7 days; assay type: functional; parameters: scale not given: the % may be the effect or the level left
[17] = test system: Brassica rapa subsp. oleifera; assay: Growth inhibition of Brassica rapa subsp. oleifera assessed as total chlorophyll level at 1 x 10^-4 M after 7 days; assay type: functional; parameters: scale not given: the % may be the effect or the level left
[18] = Toxicity in Mus musculus ddY (mouse) assessed as mortality at 375 mg/kg, ip after 5 days; assay type: organism-based; parameters: dose 375 mg/kg, route intraperitoneal; details: in vivo
[19] = Toxicity in Mus musculus ddY (mouse) assessed as mortality at 275 mg/kg, ip after 1 day; assay type: organism-based; parameters: dose 275 mg/kg, route intraperitoneal; details: in vivo
[20] = Toxicity in Mus musculus ddY (mouse) assessed as mortality at 350 mg/kg, ip after 6 days; assay type: organism-based; parameters: dose 350 mg/kg, route intraperitoneal; details: in vivo
[21] = Toxicity in Mus musculus ddY (mouse) assessed as mortality at 400 mg/kg, ip after 4 days; assay type: organism-based; parameters: dose 400 mg/kg, route intraperitoneal; details: in vivo
[22] = Toxicity in ip dosed Mus musculus ddY (mouse) assessed as mortality after 1 to 7 days; assay type: organism-based; details: in vivo
[23] = Toxicity in Mus musculus ddY (mouse) assessed as mortality at 300 mg/kg, ip after 1 day; assay type: organism-based; parameters: dose 300 mg/kg, route intraperitoneal; details: in vivo
[24] = Toxicity in Mus musculus ddY (mouse) assessed as mortality at 300 mg/kg, ip after 6 days; assay type: organism-based; parameters: dose 300 mg/kg, route intraperitoneal; details: in vivo
[25] = test system: Brassica rapa subsp. oleifera; assay: Growth inhibition of Brassica rapa subsp. oleifera assessed as total chlorophyll level at 3 x 10^-4 M after 7 days; assay type: functional; parameters: scale not given: the % may be the effect or the level left
[26] = Toxicity in Mus musculus ddY (mouse) assessed as mortality at 275 mg/kg, ip after 4 days; assay type: organism-based; parameters: dose 275 mg/kg, route intraperitoneal; details: in vivo
[27] = Toxicity in Mus musculus ddY (mouse) assessed as mortality at 275 mg/kg, ip after 3 days; assay type: organism-based; parameters: dose 275 mg/kg, route intraperitoneal; details: in vivo
[28] = Toxicity in Mus musculus ddY (mouse) assessed as mortality at 325 mg/kg, ip after 7 days; assay type: organism-based; parameters: dose 325 mg/kg, route intraperitoneal; details: in vivo
[29] = test system: Brassica rapa subsp. oleifera; assay: Growth inhibition of Brassica rapa subsp. oleifera assessed as total chlorophyll level at 3 x 10^-5 M after 7 days; assay type: functional; parameters: scale not given: the % may be the effect or the level left
[30] = Toxicity in Mus musculus ddY (mouse) assessed as mortality at 350 mg/kg, ip after 7 days; assay type: organism-based; parameters: dose 350 mg/kg, route intraperitoneal; details: in vivo
[31] = Toxicity in Mus musculus ddY (mouse) assessed as mortality at 350 mg/kg, ip after 2 days; assay type: organism-based; parameters: dose 350 mg/kg, route intraperitoneal; details: in vivo
[32] = test system: Brassica rapa subsp. oleifera; assay: Growth inhibition of Brassica rapa subsp. oleifera assessed as total chlorophyll level at 5 x 10^-5 M after 7 days; assay type: functional; parameters: scale not given: the % may be the effect or the level left
[33] = Toxicity in Mus musculus ddY (mouse) assessed as mortality at 400 mg/kg, ip after 7 days; assay type: organism-based; parameters: dose 400 mg/kg, route intraperitoneal; details: in vivo
[34] = Toxicity in Mus musculus ddY (mouse) assessed as mortality at 375 mg/kg, ip after 6 days; assay type: organism-based; parameters: dose 375 mg/kg, route intraperitoneal; details: in vivo
[35] = test system: Brassica rapa subsp. oleifera; assay: Growth inhibition of Brassica rapa subsp. oleifera assessed as chlorophyll a level at 5 x 10^-5 M after 7 days; assay type: functional; parameters: scale not given: the % may be the effect or the level left
[36] = Toxicity in Mus musculus ddY (mouse) assessed as mortality at 300 mg/kg, ip after 7 days; assay type: organism-based; parameters: dose 300 mg/kg, route intraperitoneal; details: in vivo
[37] = Toxicity in Mus musculus ddY (mouse) assessed as mortality at 375 mg/kg, ip after 7 days; assay type: organism-based; parameters: dose 375 mg/kg, route intraperitoneal; details: in vivo
[38] = Toxicity in Mus musculus ddY (mouse) assessed as mortality at 375 mg/kg, ip after 2 days; assay type: organism-based; parameters: dose 375 mg/kg, route intraperitoneal; details: in vivo
[39] = Toxicity in Mus musculus ddY (mouse) assessed as mortality at 325 mg/kg, ip after 2 days; assay type: organism-based; parameters: dose 325 mg/kg, route intraperitoneal; details: in vivo
[40] = test system: Brassica rapa subsp. oleifera; assay: Growth inhibition of Brassica rapa subsp. oleifera assessed as root growth at 3 x 10^-5 M after 7 days; assay type: functional
[41] = Toxicity in Mus musculus ddY (mouse) assessed as mortality at 350 mg/kg, ip after 5 days; assay type: organism-based; parameters: dose 350 mg/kg, route intraperitoneal; details: in vivo
[42] = Toxicity in Mus musculus ddY (mouse) assessed as mortality at 325 mg/kg, ip after 3 days; assay type: organism-based; parameters: dose 325 mg/kg, route intraperitoneal; details: in vivo
[43] = test system: Brassica rapa subsp. oleifera; assay: Growth inhibition of Brassica rapa subsp. oleifera assessed as chlorophyll b level at 3 x 10^-4 M after 7 days; assay type: functional; parameters: scale not given: the % may be the effect or the level left
[44] = Toxicity in Mus musculus ddY (mouse) assessed as mortality at 325 mg/kg, ip after 4 days; assay type: organism-based; parameters: dose 325 mg/kg, route intraperitoneal; details: in vivo
[45] = Toxicity in Mus musculus ddY (mouse) assessed as mortality at 325 mg/kg, ip after 5 days; assay type: organism-based; parameters: dose 325 mg/kg, route intraperitoneal; details: in vivo
[46] = Toxicity in Mus musculus ddY (mouse) assessed as mortality at 325 mg/kg, ip after 1 day; assay type: organism-based; parameters: dose 325 mg/kg, route intraperitoneal; details: in vivo
[47] = Toxicity in Mus musculus ddY (mouse) assessed as mortality at 300 mg/kg, ip after 4 days; assay type: organism-based; parameters: dose 300 mg/kg, route intraperitoneal; details: in vivo
[48] = test system: Brassica rapa subsp. oleifera; assay: Growth inhibition of Brassica rapa subsp. oleifera assessed as chlorophyll b level at 3 x 10^-5 M after 7 days; assay type: functional; parameters: scale not given: the % may be the effect or the level left
[49] = Toxicity in Mus musculus ddY (mouse) assessed as mortality at 400 mg/kg, ip after 2 days; assay type: organism-based; parameters: dose 400 mg/kg, route intraperitoneal; details: in vivo
[50] = test system: Brassica rapa subsp. oleifera; assay: Growth inhibition of Brassica rapa subsp. oleifera assessed as chlorophyll a level at 3 x 10^-4 M after 7 days; assay type: functional; parameters: scale not given: the % may be the effect or the level left
[51] = test system: Brassica rapa subsp. oleifera; assay: Growth inhibition of Brassica rapa subsp. oleifera assessed as root growth at 3 x 10^-4 M after 7 days; assay type: functional
[52] = Toxicity in Mus musculus ddY (mouse) assessed as mortality at 350 mg/kg, ip after 1 day; assay type: organism-based; parameters: dose 350 mg/kg, route intraperitoneal; details: in vivo
[53] = Toxicity in Mus musculus ddY (mouse) assessed as mortality at 275 mg/kg, ip after 2 days; assay type: organism-based; parameters: dose 275 mg/kg, route intraperitoneal; details: in vivo
[54] = Toxicity in Mus musculus ddY (mouse) assessed as mortality at 275 mg/kg, ip after 7 days; assay type: organism-based; parameters: dose 275 mg/kg, route intraperitoneal; details: in vivo
[55] = Toxicity in Mus musculus ddY (mouse) assessed as mortality at 375 mg/kg, ip after 1 day; assay type: organism-based; parameters: dose 375 mg/kg, route intraperitoneal; details: in vivo
[56] = test system: Brassica rapa subsp. oleifera; assay: Growth inhibition of Brassica rapa subsp. oleifera assessed as chlorophyll b level at 5 x 10^-5 M after 7 days; assay type: functional; parameters: scale not given: the % may be the effect or the level left
[57] = test system: Brassica rapa subsp. oleifera; assay: Growth inhibition of Brassica rapa subsp. oleifera assessed as chlorophyll b level at 1 x 10^-4 M after 7 days; assay type: functional; parameters: scale not given: the % may be the effect or the level left
[58] = Toxicity in Mus musculus ddY (mouse) assessed as mortality at 400 mg/kg, ip after 5 days; assay type: organism-based; parameters: dose 400 mg/kg, route intraperitoneal; details: in vivo
[59] = Toxicity in Mus musculus ddY (mouse) assessed as mortality at 275 mg/kg, ip after 5 days; assay type: organism-based; parameters: dose 275 mg/kg, route intraperitoneal; details: in vivo

## O=C1CSC(=S)N1 [RHODANINE]
[1]
  mortality at 24 h: 80%
[2]
  mortality at 144 h: 80%
[3]
  Activity: 38.7 mm
[4]
  mortality at 72 h: 80%
[5]
  mortality at 120 h: 40%
[6]
  mortality at 144 h: 0%
[7]
  Root length: 42.5 mm
[8]
  mortality at 96 h: 100%
[9]
  mortality at 72 h: 100%
[10]
  mortality at 96 h: 80%
[11]
  mortality at 48 h: 40%
[12]
  mortality at 72 h: 40%
[13]
  mortality at 144 h: 100%
[14]
  Activity: 14.1%
[15]
  mortality at 72 h: 100%
[16]
  Activity: 6.76%
[17]
  Activity: 9.16%
[18]
  mortality at 120 h: 100%
[19]
  mortality at 24 h: 0%
[20]
  mortality at 144 h: 80%
[21]
  mortality at 96 h: 100%
[22]
  LD50: 311 mg/kg
[23]
  mortality at 24 h: 0%
[24]
  mortality at 144 h: 40%
[25]
  Activity: 3.52%
[26]
  mortality at 96 h: 0%
[27]
  mortality at 72 h: 0%
[28]
  mortality at 168 h: 80%
[29]
  Activity: 19.19%
[30]
  mortality at 168 h: 80%
[31]
  mortality at 48 h: 80%
[32]
  Activity: 19.17%
[33]
  mortality at 168 h: 100%
[34]
  mortality at 144 h: 100%
[35]
  Activity: 14.1%
[36]
  mortality at 168 h: 40%
[37]
  mortality at 168 h: 100%
[38]
  mortality at 48 h: 100%
[39]
  mortality at 48 h: 80%
[40]
  Root length: 46 mm
[41]
  mortality at 120 h: 80%
[42]
  mortality at 72 h: 80%
[43]
  Activity: 1.44%
[44]
  mortality at 96 h: 80%
[45]
  mortality at 120 h: 80%
[46]
  mortality at 24 h: 40%
[47]
  mortality at 96 h: 40%
[48]
  Activity: 4.8%
[49]
  mortality at 48 h: 100%
[50]
  Activity: 2.09%
[51]
  Activity: 11.3 mm
[52]
  mortality at 24 h: 20%
[53]
  mortality at 48 h: 0%
[54]
  mortality at 168 h: 0%
[55]
  mortality at 24 h: 80%
[56]
  Activity: 5.08%
[57]
  Activity: 2.41%
[58]
  mortality at 120 h: 100%
[59]
  mortality at 120 h: 0%

From ChEMBL document CHEMBL3044763, “Inhibitory Activities of Rhodanine Derivatives on Plant Growth” (Biosci Biotechnol Biochem, 1996)
